{"source": "paper PMC8230315", "about": "“A Pan-Inhibitor for Protein Arginine Methyltransferase Family Enzymes” (Biomolecules, 2021)", "type_in_all_cases": "biochemical", "key": {"PRMT1 [1]": {"target": "T1, PRMT1 (Homo sapiens, UniProt Q99873)", "T1 sequence (Q99873 whole entry, species assumed)": "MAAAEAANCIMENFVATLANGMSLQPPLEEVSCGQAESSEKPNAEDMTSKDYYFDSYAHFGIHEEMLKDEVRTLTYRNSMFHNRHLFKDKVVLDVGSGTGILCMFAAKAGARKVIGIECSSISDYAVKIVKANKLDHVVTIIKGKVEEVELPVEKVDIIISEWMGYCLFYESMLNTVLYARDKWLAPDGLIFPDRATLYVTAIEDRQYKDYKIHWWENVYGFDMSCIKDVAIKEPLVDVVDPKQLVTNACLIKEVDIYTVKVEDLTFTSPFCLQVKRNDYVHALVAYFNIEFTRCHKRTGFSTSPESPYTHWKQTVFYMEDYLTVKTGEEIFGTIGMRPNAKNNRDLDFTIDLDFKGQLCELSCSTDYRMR", "experiment": "SAHH-coupled fluorescence assay, PRMT1 inhibition", "method": "A fluorescence-based SAHH-coupled assay was used to evaluate the IC50 values of inhibitors by monitoring the production of SAH from SAM after methylation. […] The fluorescence signal was monitored on a BMG CLARIOstar microplate reader with excitation at 400 nm and emission at 465 nm for 18 min. Data were processed using GraphPad Prism software 7.0. All experiments were performed in duplicate.\nThe fluorescence signal was monitored on a BMG CLARIOstar microplate reader with excitation at 400 nm and emission at 465 nm for 18 min. Data were processed using GraphPad Prism software 7.0. All experiments were performed in duplicate. […]."}, "PRMT1 [2]": {"target": "T1, PRMT1", "experiment": "Inhibition mechanism kinetic analysis, SAHH-coupled fluorescence assay with PRMT1", "method": "The fluorescence-based SAHH-coupled assay was employed for the enzyme kinetic study. Varying concentrations of SAM (from 0.5 to 8 Km) with 5 μM fixed concentration of H4-21 or varying concentration of H4-21 (from 0.5 to 8 Km) with 10 μM fixed concentration of SAM was included in reactions with a series concentration of compounds. All the IC50 values were determined in triplicate. Fluorescence was monitored on a BMG CLARIOstar microplate with excitation at 380 nm and emission at 505 nm. Data were processed using GraphPad Prism software 7.0."}, "NTMT1": {"tested_on": "NTMT1", "experiment": "Selectivity SAHH-coupled fluorescence assay, NTMT1", "text": "(§1) We chose the top four potent compounds (6b and 6l–n) to investigate their selectivities against several in-house methyltransferases including protein arginine methyltransferase TbPRMT7, two members of the protein lysine methyltransferase PKMT (G9a and SETD7), protein N-terminal methyltransferase 1 (NTMT1), and a small molecule methyltransferase nicotinamide N-methyltransferase (NNMT), all of which have a SAM binding site.\n(§2) A fluorescence-based SAHH-coupled assay was applied to study the effect of the compound on methyltransferase activity of PRMT7, NTMT1, SETD7, G9a, NNMT, and SAHH. For PRMT7, the assay was performed in a final well volume of 100 μL: 25 mM Tris (pH = 7.5), 50 mM KCl, 0.01% Triton X-100, 5 μM SAHH, 0.2 μM PRMT7, 3 μM AdoMet, and 15 μM ThioGlo1. After incubation for 10 min with the inhibitor, reactions were initiated by the addition of 60 μM H4-21 peptide, and the reaction was monitored for 15 min. […] After incubation for 10 min with the inhibitor, reactions were initiated by the addition of 0.5 μM GPKRIA peptide, and the reaction was monitored for 15 min. […] After incubation for 10 min with the inhibitor, reactions were initiated by the addition of 90 μM H3-21 peptide, and the reaction was monitored for 15 min. […] After incubation for 10 min with the inhibitor, reactions were initiated by the addition of 10 μM nicotinamide, and the reaction was monitored for 18 min. […]"}, "SETD7": {"target": "T2, SETD7 (Homo sapiens, UniProt Q8WTS6)", "T2 construct": "made in house", "T2 sequence (Q8WTS6 1-366)": "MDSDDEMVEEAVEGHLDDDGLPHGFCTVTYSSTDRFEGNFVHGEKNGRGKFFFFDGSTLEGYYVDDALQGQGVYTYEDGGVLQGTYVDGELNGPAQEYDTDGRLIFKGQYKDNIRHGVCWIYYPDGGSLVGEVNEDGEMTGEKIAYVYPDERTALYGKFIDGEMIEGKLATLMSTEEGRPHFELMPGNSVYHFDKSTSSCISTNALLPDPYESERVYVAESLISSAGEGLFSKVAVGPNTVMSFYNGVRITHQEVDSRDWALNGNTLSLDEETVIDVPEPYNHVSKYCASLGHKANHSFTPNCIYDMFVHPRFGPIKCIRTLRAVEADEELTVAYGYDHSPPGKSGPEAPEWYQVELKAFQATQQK", "experiment": "Selectivity SAHH-coupled fluorescence assay, SETD7", "text": "as §1\nA fluorescence-based SAHH-coupled assay was applied to study the effect of the compound on methyltransferase activity of PRMT7, NTMT1, SETD7, G9a, NNMT, and SAHH. For PRMT7, the assay was performed in a final well volume of 100 μL: 25 mM Tris (pH = 7.5), 50 mM KCl, 0.01% Triton X-100, 5 μM SAHH, 0.2 μM PRMT7, 3 μM AdoMet, and 15 μM ThioGlo1. After incubation for 10 min with the inhibitor, reactions were initiated by the addition of 60 μM H4-21 peptide, and the reaction was monitored for 15 min. For NTMT1, the assay was performed in a final well volume of 100 μL: 25 mM Tris (pH = 7.5), 50 mM KCl, 0.01% Triton X-100, 5 μM SAHH, 0.1 μM NTMT1, 3 μM AdoMet, and 10 μM ThioGlo4. After incubation for 10 min with the inhibitor, reactions were initiated by the addition of 0.5 μM GPKRIA peptide, and the reaction was monitored for 15 min. For SETD7, the assay was performed in a final well volume of 100 μL: 25 mM potassium phosphate buffer (pH = 7.6), 0.01% Triton X-100, 5 μM SAHH, 1 μM SETD7, 2 μM AdoMet, and 10 μM ThioGlo1. After incubation for 10 min with the inhibitor, reactions were initiated by the addition of 90 μM H3-21 peptide, and the reaction was monitored for 15 min. For G9a, the assay was performed in a final well volume of 100 μL: 25 mM potassium phosphate buffer (pH = 7.6), 1 mM EDTA, 2 mM MgCl2, 0.01% Triton X-100, 5 μM SAHH, 0.1 μM His-G9a, 10 μM AdoMet, and 10 μM ThioGlo4. For NNMT, the assay was performed in a final well volume of 100 μL: 25 mM Tris (pH = 7.5), 50 mM KCl, 0.01% Triton X- 100, 5 μM SAHH, 0.1 μM NNMT, 10 μM AdoMet, and 10 μM ThioGlo1. After incubation for 10 min with the inhibitor, reactions were initiated by the addition of 10 μM nicotinamide, and the reaction was monitored for 18 min. The inhibitors were added at five concentrations: 100, 33.3, 11.1, 3.7, and 1.2 μM."}, "G9a": {"tested_on": "G9a", "experiment": "Selectivity SAHH-coupled fluorescence assay, G9a", "text": "as §1, §2"}, "NNMT": {"tested_on": "NNMT", "experiment": "Selectivity SAHH-coupled fluorescence assay, NNMT", "text": "as §1, §2"}, "PRMT1 [3]": {"target": "T1, PRMT1", "experiment": "HotSpot radioisotope 3H-AdoMet methyltransferase assay (Reaction Biology), PRMT1", "method": "(§3) Future studies will focus on obtaining structural information of II757 bound to PRMTs to inform how to connect to a substrate portion to increase both potency and selectivity for each PRMT.\n(§4) Figure 6 Selectivity of II757 against the panel of PRMTs. II757 was tested in 10 doses with threefold serial dilution in the HotSpot methyltransferase assay at reaction biology. TEXT PRINTED IN THE PICTURE: II757: IC50 (nM) PRMT1: 16.4; IC50 (nM) PRMT3: 321; IC50 (nM) PRMT4: 5.05; IC50 (nM) PRMT5/MEP50 Complex: 18.2; IC50 (nM) PRMT5 (C449S)/MEP50: 36.6; IC50 (nM) PRMT6: 30.5; IC50 (nM) PRMT7: 555; IC50 (nM) PRMT8: 32.1"}, "PRMT5/MEP50 Complex": {"target": "T3, PRMT5/MEP50 Complex (Homo sapiens, UniProt O14744)", "T3 construct": "purchased Reaction Biology", "experiment": "HotSpot radioisotope 3H-AdoMet methyltransferase assay, PRMT5/MEP50", "method": "as §3, §4"}, "PRMT5 (C449S)/MEP50": {"target": "T4, PRMT5 (C449S)/MEP50 (Homo sapiens, UniProt O14744, C449S)", "T4 construct": "purchased Reaction Biology", "T4 sequence (O14744 whole entry C449S)": "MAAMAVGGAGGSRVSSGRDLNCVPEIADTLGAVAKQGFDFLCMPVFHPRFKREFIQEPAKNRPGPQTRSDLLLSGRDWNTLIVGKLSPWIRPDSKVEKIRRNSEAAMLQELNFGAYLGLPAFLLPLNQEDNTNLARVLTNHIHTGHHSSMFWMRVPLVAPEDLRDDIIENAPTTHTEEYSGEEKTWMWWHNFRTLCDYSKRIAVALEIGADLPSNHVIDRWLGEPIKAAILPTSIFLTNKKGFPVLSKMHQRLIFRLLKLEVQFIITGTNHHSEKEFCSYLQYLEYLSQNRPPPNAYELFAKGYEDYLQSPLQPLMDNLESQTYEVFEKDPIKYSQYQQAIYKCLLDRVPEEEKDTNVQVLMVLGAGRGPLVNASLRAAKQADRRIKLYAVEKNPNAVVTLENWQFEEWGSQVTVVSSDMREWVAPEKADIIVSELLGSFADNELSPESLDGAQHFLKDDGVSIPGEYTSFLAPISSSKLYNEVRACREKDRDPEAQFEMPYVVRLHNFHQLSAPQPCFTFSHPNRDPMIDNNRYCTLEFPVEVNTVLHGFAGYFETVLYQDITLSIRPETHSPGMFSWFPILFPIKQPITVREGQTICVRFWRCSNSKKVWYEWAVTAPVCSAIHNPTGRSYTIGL", "T4 sequence (Q9BQA1 whole entry partner)": "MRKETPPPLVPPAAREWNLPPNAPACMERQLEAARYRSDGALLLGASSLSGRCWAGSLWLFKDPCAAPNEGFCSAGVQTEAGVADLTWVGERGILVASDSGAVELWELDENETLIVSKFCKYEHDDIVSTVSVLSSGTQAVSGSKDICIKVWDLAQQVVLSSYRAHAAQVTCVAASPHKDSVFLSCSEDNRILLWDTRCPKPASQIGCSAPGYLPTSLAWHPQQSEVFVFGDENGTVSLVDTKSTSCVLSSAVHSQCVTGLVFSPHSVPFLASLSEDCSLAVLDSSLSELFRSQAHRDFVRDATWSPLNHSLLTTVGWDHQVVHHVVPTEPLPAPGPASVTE", "experiment": "HotSpot radioisotope 3H-AdoMet methyltransferase assay, PRMT5 (C449S)/MEP50", "method": "as §3, §4"}, "PRMT8": {"target": "T5, PRMT8 (Homo sapiens, UniProt Q9NR22)", "T5 construct": "purchased Reaction Biology", "experiment": "HotSpot radioisotope 3H-AdoMet methyltransferase assay, PRMT8", "method": "as §3, §4"}}, "note": "Entries after “also recorded” stand apart in the source; their conditions may differ. Like-named read-outs stand apart in the source and are kept apart here.", "data": [{"compound": "N=C(NCCCSC[C@H]1O[C@@H](n2cnc3c(N)ncnc32)[C@H](O)[C@@H]1O)Nc1cccc(Br)c1", "note": "[Compound 6l, 1-(3-((((2S,3S,4R,5R)-5-(6-amino-9H-purin-9-yl)-3,4-dihydroxytetrahydrofuran-2-yl)methyl)thio)propyl)-3-(3-bromophenyl)guanidine]", "values": [{"measurement": "IC50", "setting": "PRMT1 [1]; PRMT1 0.1 µM, substrate concentration at 4 Km (footnote a), n = 2, mean ± SD", "value": "0.09 ± 0.04", "unit": "µM"}, {"measurement": "Ki", "setting": "PRMT1 [1]; SAHH-coupled assay, PRMT1, read-out: apparent Ki", "value": "~0.018", "unit": "µM"}, {"measurement": "Ki", "setting": "PRMT1 [1]; calculated as Ki, app = IC50/(1 + [S]/Km), read-out: Ki, app", "value": "0.018 ± 0.008", "unit": "µM"}, {"measurement": "inhibition pattern versus peptide substrate H4-21", "setting": "PRMT1 [2]; H4-21 from 0.5 to 8 Km, SAM fixed at 10 µM", "value": "noncompetitive"}, {"measurement": "inhibition pattern versus SAM", "setting": "PRMT1 [2]; SAM from 0.5 to 8 Km, H4-21 fixed at 5 µM, listed as II757", "value": "competitively binds at the SAM binding site; also recorded: SAM-competitive inhibitor"}, {"measurement": "selectivity over NTMT1", "setting": "NTMT1", "value": "over 1000 fold"}, {"measurement": "selectivity over SETD7", "setting": "SETD7", "value": "over 1000 fold"}, {"measurement": "selectivity over G9a", "setting": "G9a", "value": "over 1000 fold"}, {"measurement": "selectivity over NNMT", "setting": "NNMT", "value": "over 1000 fold"}, {"measurement": "IC50", "setting": "PRMT1 [3]", "value": 0.0164, "unit": "µM"}, {"measurement": "IC50", "setting": "PRMT5/MEP50 Complex", "value": 0.0182, "unit": "µM"}, {"measurement": "IC50", "setting": "PRMT5 (C449S)/MEP50", "value": 0.0366, "unit": "µM"}, {"measurement": "IC50", "setting": "PRMT8", "value": 0.0321, "unit": "µM"}]}]}
